# Earlier results as cited in publication PMC8538004, “Identification of a Novel Neuropeptide S Receptor Antagonist Scaffold Based on the SHA-68 Core” (Pharmaceuticals, 2021).
# Legend:
# [1] = system: NPSR; set-up: method as in PMID 24964000, PMID 20615693, PMID 18337476, PMID 24171469, PMID 20510609; conditions: Figure 1, known NPSR antagonists; cited from earlier work
# [2] = system: NPS-stimulated locomotor activity; set-up: method as in PMID 18337476, PMID 20172007; conditions: dosed at 50 mg/kg, 0.1 nmol of NPS; cited from earlier work
smiles,measurement,setting,value
"O=C(NCc1ccc(F)cc1)N1CCN2C(=O)OC(c3ccccc3)(c3ccccc3)C2C1 (centres unmarked) [SHA-68, 3-Oxo-1,1-diphenyl-tetrahydro-oxazolo[3,4-a]pyrazine-7-carboxylic Acid 4-Fluoro-benzylamide]",Ke,[1],14 nM
same,Block of NPS-stimulated locomotor activity,[2],significantly block
